From the C3SDB collision cross section collection
Values joined by “and” are separate entries in the source; they are usually repeats but may differ in a detail not shown here. Identical values can stand only once.

Assays:
[1] = instrument: DT, stepped-field
[2] = instrument: DT, single field, calibrated with Agilent tune mix (Agilent)
[3] = instrument: TW, calibrated with phosphatidylcholines (ESI+) and phosphatidylethanolamines (ESI-)
[4] = [M+H]+; instrument: TW

Compound: CCCCCCCC/C=C\CCCCCCCC(=O)OC[C@@H](O)COP(=O)(O)O [LPA(18:1)]
- collision cross section (N2) ([1]; [M-H]-): 198.8 Å²

Compound: CCCCCC/C=C\CCCCCCCC(=O)OC[C@@H](O)COP(=O)(O)OCCN [LPE(16:1)]
- collision cross section (N2) ([2]; [M-H]-): 203.8 Å²
- collision cross section (N2) ([1]; [M-H]-): 201.1 Å²

Compound: CCCCCC/C=C\CCCCCCCCCC(=O)O[C@H](CO)COP(=O)(O)OCCN [LPE(18:1)]
- collision cross section (N2) ([2]; [M+H]+): 215.8 Å²
- collision cross section (N2) ([2]; [M+Na]+): 222.1 Å²
- collision cross section (N2) ([2]; [M-H]-): 211.3 Å²
- collision cross section (N2) ([1]; [M-H]-): 210.1 Å²
- collision cross section (N2) ([3]; [M+H]+): 214.2 Å²
- collision cross section (N2) ([3]; [M+Na]+): 219 Å²
- collision cross section (N2) ([3]; [M-H]-): 210.2 Å²

Compound: CCCCCCCCCCCCCCCC(=O)OC[C@@H](O)COP(=O)(O)OC[C@@H](O)CO [LPG(16:0)]
- collision cross section (N2) ([1]; [M-H]-): 214.3 Å²

Compound: CCCCCC/C=C\CCCCCCCC(=O)OC[C@@H](O)COP(=O)(O)OC[C@@H](O)CO [LPG(16:1)]
- collision cross section (N2) ([1]; [M-H]-): 212 Å²

Compound: CCCCCCCCCCCCCCCC(=O)OC[C@@H](O)COP(=O)(O)O[C@H]1C(O)C(O)C(O)[C@@H](O)C1O (stereo partly drawn) [LPI(16:0)]
- collision cross section (N2) ([2]; [M-H]-): 229.1 Å²
- collision cross section (N2) ([1]; [M-H]-): 228.7 Å²

Compound: CCCCCCCC/C=C\CCCCCCCCCC(=O)O[C@H](COC(=O)CCCCCCCCCCC)COP(=O)(O)O [PA(16:0/16:1)]
- collision cross section (N2) ([1]; [M-H]-): 251.8 Å²

Compound: CCCCCCCCCC/C=C\CCCCCCCCCC(=O)O[C@H](COC(=O)CCCCCCCCCCCCC)COP(=O)(O)O [PA(18:0/18:1)]
- collision cross section (N2) ([1]; [M-H]-): 268 Å²

Compound: CCCCC/C=C\C/C=C\CCCCCCCCCCCC(=O)O[C@H](COC(=O)CCCCCCCCCCCCC)COP(=O)(O)O [PA(18:1/18:1)]
- collision cross section (N2) ([1]; [M-H]-): 264 Å²

Compound: CCCCC/C=C\C/C=C\C/C=C\CCCCCCC(=O)O[C@H](COCCCCCCCCCCCCCCCC)COP(=O)([O-])OCC[N+](C)(C)C [PC(o36:3)]
- collision cross section (N2) ([1]; [M+H]+): 301 Å²

Compound: CC/C=C\C/C=C\C/C=C\C/C=C\C/C=C\CCCC(=O)O[C@H](COCCCCCCCCCCCCCCCC)COP(=O)([O-])OCC[N+](C)(C)C [PC(o36:5)]
- collision cross section (N2) ([1]; [M+H]+): 293.8 Å²

Compound: CCCCC/C=C\C/C=C\CCCCCCCC(=O)O[C@H](COC(=O)CCCCCCCCCCCCCCC)COP(=O)(O)OCCN [PE(16:1/18:1)]
- collision cross section (N2) ([1]; [M+H]+): 283.8 Å²

Compound: CCCCC/C=C\C/C=C\CCCCCCCCCCCC(=O)O[C@H](COC(=O)CCCCCCC/C=C\C/C=C\CCCCC)COP(=O)(O)OCCN [PE(40:4)]
- collision cross section (N2) ([2]; [M+H]+): 288.1 Å²
- collision cross section (N2) ([2]; [M+Na]+): 293.3 Å²
- collision cross section (N2) ([2]; [M-H]-): 278.5 Å²
- collision cross section (N2) ([1]; [M-H]-): 287.9 Å² and 287.8 Å²
- collision cross section (N2) ([3]; [M+H]+): 286.8 Å²
- collision cross section (N2) ([3]; [M-H]-): 277.3 Å²

Compound: CCCCC/C=C\C/C=C\C/C=C\CCCCCCC(=O)O[C@H](COCCCCCCCCCCCCCCCCCC)COP(=O)(O)OCCN [PE(o38:3)]
- collision cross section (N2) ([1]; [M+H]+): 297.6 Å²

Compound: CCCC/C=C\CCCCCCCC(=O)OC[C@H](COP(=O)(O)OC[C@@H](O)CO)OC(=O)CCCCCCC/C=C\CCCCCCCC [PG(16:1/16:1)]
- collision cross section (N2) ([1]; [M-H]-): 267.1 Å²

Compound: CC/C=C\C/C=C\C/C=C\C/C=C\CCCCC(=O)OC[C@H](COP(=O)(O)OC[C@@H](O)CO)OC(=O)CCCCCCCCCCCCCCCCC [PG(36:4)]
- collision cross section (N2) ([2]; [M+NH4]+): 283.4 Å²
- collision cross section (N2) ([1]; [M-H]-): 278 Å²
- collision cross section (N2) ([3]; [M+Na]+): 281 Å²
- collision cross section (N2) ([3]; [M-H]-): 271.3 Å²

Compound: CCCCCCCCCCCCCCCC(=O)OC[C@H](COP(=O)(O)O[C@H]1C(O)C(O)C(O)[C@@H](O)C1O)OC(=O)CCCCCCCCCCC (stereo partly drawn) [PI(12:0/16:0)]
- collision cross section (N2) ([1]; [M-H]-): 273.5 Å²

Compound: CCCCCCC/C=C\CCCCCCCC(=O)O[C@H](COC(=O)CCCCCCCCCCCC)COP(=O)(O)O[C@H]1C(O)C(O)C(O)[C@@H](O)C1O (stereo partly drawn) [PI(14:0/16:1)]
- collision cross section (N2) ([1]; [M-H]-): 278.4 Å²

Compound: CCCCC/C=C\C/C=C\CCCCCCCCCCCC(=O)O[C@H](COC(=O)CCCCCCCCCCC)COP(=O)(O)O[C@H]1C(O)C(O)C(O)[C@@H](O)C1O (stereo partly drawn) [PI(16:1/18:1)]
- collision cross section (N2) ([1]; [M-H]-): 289.2 Å²

Compound: CCCCC/C=C\C/C=C\C/C=C\CCCCCCC(=O)O[C@H](COC(=O)CCCCCCC/C=C\CCCCCC)COP(=O)(O)O[C@H]1C(O)C(O)C(O)[C@@H](O)C1O (stereo partly drawn) [PI(36:4)]
- collision cross section (N2) ([2]; [M+H]+): 296.5 Å²
- collision cross section (N2) ([2]; [M+NH4]+): 297.3 Å²
- collision cross section (N2) ([2]; [M+Na]+): 294.5 Å²
- collision cross section (N2) ([1]; [M-H]-): 297.2 Å²
- collision cross section (N2) ([3]; [M+Na]+): 290.5 Å²
- collision cross section (N2) ([3]; [M-H]-): 286.1 Å²

Compound: CCCCC/C=C\C/C=C\CCCCCCCCCCCC(=O)O[C@H](COC(=O)CCCCCCC/C=C\CCCCCC)COP(=O)(O)O[C@H]1C(O)C(O)C(O)[C@@H](O)C1O (stereo partly drawn) [PI(38:3)]
- collision cross section (N2) ([2]; [M+H]+): 304.2 Å²
- collision cross section (N2) ([2]; [M+NH4]+): 306 Å²
- collision cross section (N2) ([2]; [M+Na]+): 303.1 Å²
- collision cross section (N2) ([2]; [M-H]-): 293.7 Å²
- collision cross section (N2) ([1]; [M-H]-): 301.7 Å² and 303.9 Å²
- collision cross section (N2) ([3]; [M+Na]+): 298.5 Å²
- collision cross section (N2) ([3]; [M-H]-): 293 Å²

Compound: CC/C=C\C/C=C\C/C=C\C/C=C\CCCCC(=O)OC[C@H](COP(=O)(O)O[C@H]1C(O)C(O)C(O)[C@@H](O)C1O)OC(=O)CCCCCCCCCCCCCCCCCCC (stereo partly drawn) [PI(38:4)]
- collision cross section (N2) ([2]; [M+H]+): 302.3 Å²
- collision cross section (N2) ([2]; [M+NH4]+): 304 Å²
- collision cross section (N2) ([2]; [M-H]-): 292.9 Å²
- collision cross section (N2) ([1]; [M-H]-): 303.6 Å² and 300.7 Å²
- collision cross section (N2) ([3]; [M+Na]+): 297.4 Å²
- collision cross section (N2) ([3]; [M-H]-): 292.1 Å²

Compound: CCCCC/C=C\C/C=C\CCCCCCCCCCCC(=O)O[C@H](COC(=O)CCCCCCCCCCC)COP(=O)(O)OC[C@H](N)C(=O)O [PS(16:1/18:1)]
- collision cross section (N2) ([1]; [M-H]-): 276.9 Å²

Compound: CCCCCCCCCC/C=C\CCCCCCCCCC(=O)O[C@H](COC(=O)CCCCCCCCCCCCC)COP(=O)(O)OC[C@H](N)C(=O)O [PS(36:1)]
- collision cross section (N2) ([2]; [M+H]+): 286.2 Å²
- collision cross section (N2) ([2]; [M+Na]+): 287.5 Å²
- collision cross section (N2) ([2]; [M-H]-): 279.1 Å²
- collision cross section (N2) ([1]; [M-H]-): 289.4 Å²
- collision cross section (N2) ([3]; [M-H]-): 278.8 Å²

Compound: CCCCCCCCCC/C=C\CCCCCCCCCC(=O)O[C@H](COC(=O)CCCCCCCCCCCCCCC)COP(=O)(O)OC[C@H](N)C(=O)O [PS(38:1)]
- collision cross section (N2) ([2]; [M+H]+): 292.9 Å²
- collision cross section (N2) ([1]; [M-H]-): 296.1 Å²

Compound: CCCCC/C=C\C/C=C\CCCCCCCCCCCC(=O)O[C@H](COC(=O)CCCCCCC/C=C\CCCCCC)COP(=O)(O)OC[C@H](N)C(=O)O [PS(38:3)]
- collision cross section (N2) ([1]; [M-H]-): 292.4 Å²
- collision cross section (N2) ([3]; [M-H]-): 281.7 Å²

Compound: CCCCCCCCCC/C=C\CCCCCCCCCC(=O)O[C@H](COC(=O)CCCCCCCCCCCCCCCCC)COP(=O)(O)OC[C@H](N)C(=O)O [PS(40:1)]
- collision cross section (N2) ([1]; [M-H]-): 302.2 Å²

Compound: C=C1C[C@@]23CC[C@H]4[C@@](C)(CCC[C@@]4(C)C(=O)O[C@@H]4O[C@H](CO)[C@@H](O)[C@H](O)[C@H]4O)[C@@H]2CC[C@]1(O[C@@H]1O[C@H](CO)[C@@H](O)[C@H](O[C@@H]2O[C@H](CO)[C@@H](O)[C@H](O)[C@H]2O)[C@H]1O[C@@H]1O[C@@H](C)[C@H](O)[C@@H](O)[C@H]1O)C3 [Rebaudioside C]
- collision cross section (N2) [4]: 299.49 Å²

Compound: C=C1C[C@@]23CC[C@H]4[C@@](C)(CCC[C@@]4(C)C(=O)O[C@@H]4O[C@H](CO)[C@@H](O)[C@H](O)[C@H]4O[C@@H]4O[C@H](CO)[C@@H](O)[C@H](O)[C@H]4O)[C@@H]2CC[C@]1(O[C@@H]1O[C@H](CO)[C@@H](O)[C@H](O)[C@H]1O[C@@H]1O[C@H](CO)[C@@H](O)[C@H](O)[C@H]1O)C3 [Rebaudioside E]
- collision cross section (N2) [4]: 289.2 Å²

Compound: C=C1C[C@@]23CC[C@H]4[C@@](C)(CCC[C@@]4(C)C(=O)O[C@@H]4O[C@H](CO)[C@@H](O)[C@H](O)[C@H]4O)[C@@H]2CC[C@]1(O[C@@H]1O[C@H](CO)[C@@H](O)[C@H](O[C@@H]2O[C@H](CO)[C@@H](O)[C@H](O)[C@H]2O)[C@H]1O[C@@H]1OC[C@@H](O)[C@H](O)[C@H]1O)C3 [Rebaudioside F]
- collision cross section (N2) [4]: 293.18 Å²

Compound: C=C1C[C@@]23CC[C@H]4[C@@](C)(CCC[C@@]4(C)C(=O)O[C@@H]4O[C@H](CO)[C@@H](O)[C@H](O)[C@H]4O)[C@@H]2CC[C@]1(O[C@@H]1O[C@H](CO)[C@@H](O)[C@H](O)[C@H]1O)C3 [Rubusoside]
- collision cross section (N2) [4]: 241.31 Å²

Compound: C=C1C[C@@]23CC[C@H]4[C@@](C)(CCC[C@@]4(C)C(=O)O[C@@H]4O[C@H](CO)[C@@H](O)[C@H](O)[C@H]4O)[C@@H]2CC[C@]1(O[C@@H]1O[C@H](CO)[C@@H](O)[C@H](O)[C@H]1O[C@@H]1O[C@H](CO)[C@@H](O)[C@H](O)[C@H]1O)C3 [Stevioside]
- collision cross section (N2) [4]: 269.64 Å²

Compound: COc1cc(NS(=O)(=O)c2ccc(N)cc2)nc(OC)n1 [Sulfadimethoxine]
- collision cross section (N2) [4]: 166 Å²

Compound: Nc1ccc(S(=O)(=O)Nc2nccs2)cc1 [Sulfathiazole]
- collision cross section (N2) [4]: 148.2 Å²

Compound: CC(C)(C)C(O)(CCc1ccc(Cl)cc1)Cn1cncn1 (stereo not drawn) [Tebuconazole]
- collision cross section (N2) [4]: 167.37 Å²

Compound: CCOP(=S)(OCC)SCS(=O)(=O)C(C)(C)C [Terbufos-sulfone]
- collision cross section (N2) [4]: 172.88 Å²

Compound: CCNc1nc(Cl)nc(NC(C)(C)C)n1 [Terbuthylazine]
- collision cross section (N2) [4]: 153.48 Å²

Compound: N#C/N=C1\SCCN1Cc1ccc(Cl)nc1 [Thiacloprid]
- collision cross section (N2) [4]: 154.84 Å²

Compound: COC(=O)NC(=S)Nc1ccccc1NC(=S)NC(=O)OC [Thiophanate-methyl]
- collision cross section (N2) [4]: 174.24 Å²

Compound: CCCNC[C@]1(O)[C@H](C)O[C@@H](O[C@H]2[C@H](C)[C@@H](O[C@@H]3O[C@H](C)C[C@H](N(C)C)[C@H]3O)[C@](C)(O)C[C@@H](C)CN[C@H](C)[C@@H](O)[C@](C)(O)[C@@H](CC)OC(=O)[C@@H]2C)C[C@@]1(C)OC [Tulathromycin]
- collision cross section (N2) [4]: 286.4 Å²
